Laboratory results from ChEMBL document CHEMBL3751840, “Peptide-based inhibitors of protein-protein interactions” (Bioorg Med Chem Lett, 2016).
One block for each molecule: values may come before it. Starred links: 1 amine or outer side, 2 acyl side, 3 side chain; linkers in the order of their positions; H or OH if unused. Positions of bridges follow the written chain, without caps; N, C: chain ends. Non-standard residues stand in square brackets, D forms with d. Residues, ends and D or L forms follow the SMILES beside them. X1 = O=C([C@H]1CNC[C@@H]1N[*:1])[*:2]; X2 = O=C([C@H]1CCC[C@@H]1N[*:1])[*:2]

Columns and labels:
[1] = target: Tumour suppressor p53/oncoprotein Mdm2 (Homo sapiens, UniProt P04637+Q00987); experiment: Inhibition of p53-HDM2 (unknown origin) interaction; assay type: protein assay
[2] = target: Menin/Histone-lysine N-methyltransferase MLL (Homo sapiens, UniProt O00255+Q03164); experiment: Inhibition of menin-MLL (unknown origin) interaction; assay type: protein assay
[3] = target: T1, Estrogen receptor (Homo sapiens, UniProt P03372); experiment: Binding affinity to ERalpha (unknown origin)
T1 sequence (P03372 whole entry): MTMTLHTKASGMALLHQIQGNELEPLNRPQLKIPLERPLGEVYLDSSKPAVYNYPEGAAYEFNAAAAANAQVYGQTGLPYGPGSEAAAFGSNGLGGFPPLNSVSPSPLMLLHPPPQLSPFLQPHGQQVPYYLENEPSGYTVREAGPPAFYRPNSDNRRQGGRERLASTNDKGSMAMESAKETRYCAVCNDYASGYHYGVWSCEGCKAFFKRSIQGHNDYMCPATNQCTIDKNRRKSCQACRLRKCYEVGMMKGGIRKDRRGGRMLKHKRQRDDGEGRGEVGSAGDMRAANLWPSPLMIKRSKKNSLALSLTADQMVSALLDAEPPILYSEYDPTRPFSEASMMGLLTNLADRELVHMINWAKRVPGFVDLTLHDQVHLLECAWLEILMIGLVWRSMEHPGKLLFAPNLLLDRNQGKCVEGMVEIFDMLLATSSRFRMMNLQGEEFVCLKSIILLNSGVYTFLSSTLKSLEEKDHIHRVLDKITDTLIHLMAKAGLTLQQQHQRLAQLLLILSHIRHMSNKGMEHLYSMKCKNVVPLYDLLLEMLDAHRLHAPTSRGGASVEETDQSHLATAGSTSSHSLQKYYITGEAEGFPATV

[4] = target: E3 ubiquitin-protein ligase Mdm2 (Homo sapiens, UniProt Q00987); experiment: Binding affinity to MDM2 (unknown origin)
[5] = target: Bcl-2-like protein 1 (Homo sapiens, UniProt Q07817); experiment: Inhibition of BCL-xL-BH3 domain (unknown origin) interaction
Bcl-2-like protein 1, sequence (Q07817 whole entry, the tested form may be a part): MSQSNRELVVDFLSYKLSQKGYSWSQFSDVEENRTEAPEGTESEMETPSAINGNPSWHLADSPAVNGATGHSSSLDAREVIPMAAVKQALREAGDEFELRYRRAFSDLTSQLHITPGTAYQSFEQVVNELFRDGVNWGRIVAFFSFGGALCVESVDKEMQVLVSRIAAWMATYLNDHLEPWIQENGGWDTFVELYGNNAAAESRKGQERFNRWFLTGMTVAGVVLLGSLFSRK

Tumour suppressor p53/oncoprotein Mdm2, sequence (P04637 whole entry): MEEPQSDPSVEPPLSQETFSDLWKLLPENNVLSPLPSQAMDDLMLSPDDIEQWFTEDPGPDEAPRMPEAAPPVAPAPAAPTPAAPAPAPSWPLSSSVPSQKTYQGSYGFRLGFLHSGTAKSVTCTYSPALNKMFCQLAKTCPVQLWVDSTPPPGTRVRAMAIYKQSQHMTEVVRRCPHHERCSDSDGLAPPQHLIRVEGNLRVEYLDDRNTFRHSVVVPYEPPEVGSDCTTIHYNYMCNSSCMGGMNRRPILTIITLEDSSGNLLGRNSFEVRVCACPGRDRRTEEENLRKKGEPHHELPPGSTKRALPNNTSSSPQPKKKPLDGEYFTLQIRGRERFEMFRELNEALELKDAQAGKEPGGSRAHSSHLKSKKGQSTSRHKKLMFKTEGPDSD
Tumour suppressor p53/oncoprotein Mdm2, sequence (Q00987 whole entry): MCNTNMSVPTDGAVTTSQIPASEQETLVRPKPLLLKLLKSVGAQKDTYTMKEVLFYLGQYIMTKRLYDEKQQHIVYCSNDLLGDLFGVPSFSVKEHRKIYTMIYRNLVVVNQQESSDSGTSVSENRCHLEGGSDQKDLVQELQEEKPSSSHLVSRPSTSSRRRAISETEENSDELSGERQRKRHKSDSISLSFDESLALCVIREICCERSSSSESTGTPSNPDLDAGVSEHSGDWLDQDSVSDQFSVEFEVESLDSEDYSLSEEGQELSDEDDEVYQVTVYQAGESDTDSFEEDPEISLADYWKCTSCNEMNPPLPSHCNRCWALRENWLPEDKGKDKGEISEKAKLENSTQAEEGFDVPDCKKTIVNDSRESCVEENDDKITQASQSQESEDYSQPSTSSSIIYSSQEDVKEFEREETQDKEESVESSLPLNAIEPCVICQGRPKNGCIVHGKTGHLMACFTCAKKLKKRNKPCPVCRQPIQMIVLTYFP
E3 ubiquitin-protein ligase Mdm2, sequence (Q00987 whole entry, the tested form may be a part): as the sequence (Q00987 whole entry) above

Kd [3]: 352 nM
Structure (SMILES): CC(=O)N[C@@H](Cc1cnc[nH]1)C(=O)N[C@@H](CCCCN)C(=O)N[C@@]1(C)CCCCCCCC[C@@](C)(C(=O)N[C@@H](CC(C)C)C(=O)N[C@@H](CCC(N)=O)C(=O)N[C@@H](CC(=O)O)C(=O)N[C@@H](CO)C(N)=O)NC(=O)[C@H](CCC(N)=O)NC(=O)[C@H](Cc2cnc[nH]2)NC(=O)[C@H](CC(C)C)NC1=O

Ki [5]: 2 nM
Structure (SMILES): CC(=O)N[C@H]1CNC[C@@H]1C(=O)N[C@@H](C)C(=O)N[C@H]1CCC[C@@H]1C(=O)N[C@@H](CCCNC(=N)N)C(=O)N[C@H]1CCC[C@@H]1C(=O)N[C@@H](CC(C)C)C(=O)N[C@H]1CCC[C@@H]1C(=O)N[C@@H](CCCCN)C(=O)N[C@@H](CC(C)C)C(=O)NCC(=O)N[C@@H](CC(=O)O)C(=O)N[C@@H](C)C(=O)N[C@@H](Cc1ccccc1)C(=O)N[C@@H](CC(N)=O)C(=O)N[C@@H](CCCNC(=N)N)C(N)=O (Ac-[X1]A[X2]R[X2]L[X2]KLGDAFNR-NH2)

More lines, now with the values behind:

Structure (SMILES): CC(C)C[C@@H]1NC(=O)[C@H](Cc2c[nH]c3ccc(Cl)cc23)NC(=O)[C@H](CCC(=O)O)NC(=O)[C@H](Cc2ccccc2)NC(=O)[C@@H]2CCCN2C(=O)[C@H]2CCCN2C(=O)[C@H](Cc2ccccc2)NC(=O)[C@H](CCC(=O)O)NC(=O)[C@H](Cc2c[nH]c3ccccc23)NC(=O)[C@H](CC(=O)O)NC1=O
IC50 [1]: 140 nM

Structure (SMILES): CC(C)CCN(CC(=O)N(CCS(N)(=O)=O)CC(=O)N(CC(N)=O)Cc1ccc([N+](=O)[O-])cc1)C(=O)CN(CCCP(=O)(O)O)C(=O)CN(Cc1ccc([N+](=O)[O-])cc1)C(=O)CN(CCc1c[nH]c2ccccc12)C(=O)CN(CCCCP(=O)(O)O)C(=O)CN(Cc1ccc([N+](=O)[O-])cc1)C(=O)CN(CCc1ccccc1)C(=O)CNCc1ccc([N+](=O)[O-])cc1
IC50 [1]: 6600 nM

Structure (SMILES): CC(=O)N[C@@H](CCCNC(=N)N)C(=O)N[C@@H](Cc1c[nH]c2ccccc12)C(=O)NC1CCCCCCCNC(=O)[C@@H]2CCCN2C(=O)[C@H](CCCNC(=N)N)NC(=O)[C@H](C)NC(=O)[C@@H]2CCCN2C(=O)C(Cc2ccccc2)NC1=O (single isomer, unassigned)
Ki [2]: 23.8 nM

Structure (SMILES): CC(C)C[C@H](NC(=O)[C@@H]1CSSC[C@H](N)C(=O)N[C@@H](CC(N)=O)C(=O)N[C@H]2CSSC[C@H](NC(=O)[C@H](CC(C)C)NC(=O)[C@H](Cc3ccccc3)NC(=O)[C@H]([C@@H](C)O)NC(=O)[C@H](CCC(=O)O)NC(=O)[C@@H]3CCCN3C(=O)[C@H](C)NC(=O)[C@H](CCCCN)NC2=O)C(=O)N[C@@H](Cc2ccc(O)cc2)C(=O)N[C@@H](Cc2c[nH]c3ccccc23)C(=O)N[C@@H](CCCNC(=N)N)C(=O)N1)C(=O)N[C@@H](CCC(N)=O)C(=O)N[C@@H](Cc1cnc[nH]1)C(N)=O (H-CNCKAPETFLCYWRCLQH-NH2; disulfide 1-15, 3-11)
Kd [4]: 17700 nM
